In US20260055108A1, “TRIAZINE COMPOUNDS AND USES THEREOF” (HUTCHMED LIMITED, priority 2022, published 2026) one finds IC50 and GI50 data, which are given here for ten compounds.

Assay [1] has as its target Recombinant human Menin protein (2-610) / MLL polypeptide binding (Homo sapiens (Human), UniProt O00255). Put plainly: Menin and MLL protein binding at a molecular level (fluorescence polarization method). The settings on record: inhibition of Menin / MLL polypeptide binding. In short, it runs like this:
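Binding of recombinant human Menin (2-610) to 6-FAM-labelled MLL peptide measured by fluorescence polarization (ex 480/em 535 nm) in Tris/NaCl/TCEP buffer, pH 7.5, 2% DMSO. Compound preincubated with Menin 30 min at room temperature, then peptide added for 30 min in the dark. Tested at 1.000 down to 0.0005 μM final.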

Assay [2] concerns MV-4-11 cells (human acute myelogenous leukemia cell line carrying MLL-AF4 mutation). Put plainly: Cell proliferation assay, MV-4-11 (CellTiter-Glo). The assay is classed as cell-based. In a few lines: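 MV-4-11 cells (3000/well, IMDM with 10% HIFBS and 50 μM β-mercaptoethanol) exposed to compound at 1.100–0.001 μM final, 0.1% DMSO, for 3 days at 37°C. Viability read by CellTiter-Glo luminescence on day 0 and day 3, normalised to day-0 and untreated wells.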

The mark [3] stands for this setting: Homo sapiens, MV4-11, 72 h, MV-4-11 cells, 3 days treatment, CellTiter-Glo, read-out: GI50.

Each structure is given as a SMILES string. Read-outs that look alike come from different tables or passages of the source. A value given as a limit tells only on which side of the number the result lay.

Recombinant human Menin protein (2-610) / MLL polypeptide binding, sequence (O00255 2-610): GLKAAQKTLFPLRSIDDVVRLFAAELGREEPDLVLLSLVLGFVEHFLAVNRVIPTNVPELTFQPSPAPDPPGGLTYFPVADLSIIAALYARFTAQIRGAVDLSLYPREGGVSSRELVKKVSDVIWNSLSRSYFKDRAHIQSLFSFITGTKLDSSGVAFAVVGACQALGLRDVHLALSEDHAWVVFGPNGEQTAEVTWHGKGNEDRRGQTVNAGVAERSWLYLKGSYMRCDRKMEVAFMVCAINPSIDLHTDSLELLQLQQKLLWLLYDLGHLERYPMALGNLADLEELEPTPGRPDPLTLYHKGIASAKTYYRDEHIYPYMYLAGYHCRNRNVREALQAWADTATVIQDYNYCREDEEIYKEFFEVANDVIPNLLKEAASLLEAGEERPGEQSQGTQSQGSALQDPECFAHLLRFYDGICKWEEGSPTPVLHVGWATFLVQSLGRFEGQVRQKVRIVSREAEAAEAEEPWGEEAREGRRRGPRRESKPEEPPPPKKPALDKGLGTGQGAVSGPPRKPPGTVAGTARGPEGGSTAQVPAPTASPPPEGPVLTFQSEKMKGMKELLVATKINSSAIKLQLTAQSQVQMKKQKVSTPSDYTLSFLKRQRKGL

In general, IC50 refers to the concentration at which inhibition is half-maximal. In general, GI50 refers to the concentration that inhibits growth by half. With `[2H]C(c1ccc2[nH]c(C#N)cc2c1C)N1CCC2(CC1)CN(c1ncnnc1Oc1ccc(F)cc1C(=O)N(CC)C(C)C)C2` (centres unmarked) [Compound 175, 2-((5-(7-((2-cyano-4-methyl-1H-indol-5-yl)methyl-d)-2,7-diazaspiro[3.5]nonan-2-yl)-1,2,4-triazin-6-yl)oxy)-N-ethyl-5-fluoro-N-isopropylbenzamide], the IC50 in assay [1] came to 1.5 nM. Further, the GI50 in assay [2] (setting [3]) stood at 4 nM.

Take `[2H]C(c1ccc2oc(C#N)cc2c1)N1CCC2(CC1)CN(c1ncnnc1Oc1ccc(F)cc1C(=O)N(CC)C(C)C)C2` (centres unmarked) [Compound 176]: the IC50 in assay [1] worked out at 6.1 nM. Besides, the GI50 in assay [2] (setting [3]) was determined as 26 nM.

Take `COc1cc(N2CCC(CN3CCC4(CC3)CN(c3ncnnc3Oc3ccc(F)cc3C(=O)NC(C)C)C4)CC2)nnc1OC` [Compound 177, 2-((5-(7-((1-(5,6-dimethoxypyridazin-3-yl)piperidin-4-yl)methyl)-2,7-diazaspiro[3.5]nonan-2-yl)-1,2,4-triazin-6-yl)oxy)-5-fluoro-N-isopropylbenzamide]: in assay [1], the IC50 came out at 47.3 nM. Also, the GI50 in assay [2] (Homo sapiens, MV4-11, 72 h) came to 92 nM.

In the case of `CCNC(=O)c1cc(F)ccc1Oc1nncnc1N1CC2(CCN(CC3CCN(c4cc(OC)c(OC)nn4)CC3)CC2)C1` [Compound 178, 2-((5-(7-((1-(5,6-dimethoxypyridazin-3-yl)piperidin-4-yl)methyl)-2,7-diazaspiro[3.5]nonan-2-yl)-1,2,4-triazin-6-yl)oxy)-N-ethyl-5-fluorobenzamide], the IC50 in assay [1] is 124 nM. In addition, the GI50 in assay [2] (setting [3]) turned out to be 126 nM.

On to `CCNC(=O)c1cc(F)ccc1Oc1nncnc1N1CC2(CCN(CC3CCN(c4cc(OC)c(OC)nn4)CC3)CC2)C1` [Compound 179, (Z)-2-((5-(7-((1-(5,6-dimethoxypyridazin-3-yl)piperidin-4-yl)methyl)-2,7-diazaspiro[3.5]nonan-2-yl)-1,2,4-triazin-6-yl)oxy)-N-ethyl-5-fluorobenzimidic acid], for which the IC50 in assay [1] was found to be 560 nM. For the same compound, the GI50 in assay [2] (MV-4-11 cells, 3 days treatment, CellTiter-Glo, read-out: GI50) is 155 nM.

Turning to `C=CC(=O)Nc1ccc(N2CC3(CCC(CN4CCC5(CC4)CN(c4ncnnc4Oc4ccc(F)cc4C(=O)N(CC)C(C)C)C5)CC3)C2)cc1` [Compound 180], in assay [1], the IC50 amounted to 3.9 nM. Besides, in assay [2] (setting [3]), the GI50 was 10 nM.

For the compound `C=CC(=O)Nc1cccc(N2CC3(CCC(CN4CCC5(CC4)CN(c4ncnnc4Oc4ccc(F)cc4C(=O)N(CC)C(C)C)C5)CC3)C2)c1` [Compound 181], in assay [1], the IC50 amounted to 25.5 nM. For the same compound, the GI50 in assay [2] (setting [3]) worked out at 7 nM.

As for `C=CC(=O)N1CCC(c2ccc(CN3CCC4(CC3)CN(c3ncnnc3Oc3ccc(F)cc3C(=O)N(CC)C(C)C)C4)cc2)CC1` [Compound 182], the IC50 in assay [1] is more than 1000 nM. The GI50 in assay [2] (setting [3]) came out at 430 nM.

With `C=CC(=O)Nc1cccc(N2CCC(CN3CCC4(CC3)CN(c3ncnnc3Oc3ccc(F)cc3C(=O)N(CC)C(C)C)C4)CC2)c1` [Compound 183], the IC50 in assay [1] amounted to 4 nM. The GI50 in assay [2] (setting [3]) was determined as 2 nM.

For the compound `COc1cc(N2CCC(CN3CCC4(CC3)CN(c3ncnnc3Oc3ccc(F)cc3C(=O)O)C4)CC2)nnc1OC` [Compound 184, 2-((5-(7-((1-(5,6-dimethoxypyridazin-3-yl)piperidin-4-yl)methyl)-2,7-diazaspiro[3.5]nonan-2-yl)-1,2,4-triazin-6-yl)oxy)-5-fluorobenzoic acid], the half-inhibitory concentration (IC50) in assay [1] was more than 100 nM. For the same compound, the GI50 in assay [2] (setting [3]) is more than 1100 nM.
